According to ChEMBL document CHEMBL5356982, “Truncated derivatives of amphidinol 3 reveal the functional role of polyol chain in sterol-recognition and pore formation” (Bioorg Med Chem Lett, 2024):
Activity calls are given as the source filed them. No cut-off for these calls is given here.

Columns and labels:
Lipid bilayer [1] = experiment: Binding affinity to DOPC liposomes assessed as dissociation constant for second step at 50 uM and measured from 300 to 600 sec by SPR method
Lipid bilayer [2] = experiment: Induction of pore formation in 10% Ergosterol containing DOPC liposomes assessed as calcein dye leakage by measuring calcein fluorescence by fluorescence microplate reader analysis
Lipid bilayer [3] = experiment: Induction of pore formation in DOPC liposomes assessed as calcein dye leakage by measuring calcein fluorescence at 27 uM by fluorescence microplate reader analysis
Lipid bilayer [4] = experiment: Binding affinity to DOPC liposomes assessed as dissociation constant at equilibrium at 50 uM and measured from 300 to 600 sec by SPR method
Lipid bilayer [5] = experiment: Binding affinity to DOPC liposomes assessed as dissociation constant for first step at 50 uM and measured from 300 to 600 sec by SPR method
Lipid bilayer [6] = experiment: Binding affinity to 10% Ergosterol containing DOPC liposomes assessed as dissociation constant for first step at 50 uM and measured from 300 to 600 sec by SPR method
Lipid bilayer [7] = experiment: Binding affinity to 10% Ergosterol containing DOPC liposomes assessed as dissociation constant at equilibrium at 50 uM and measured from 300 to 600 sec by SPR method
Lipid bilayer [8] = experiment: Binding affinity to 10% Ergosterol containing DOPC liposomes assessed as dissociation constant for second step at 50 uM and measured from 300 to 600 sec by SPR method
Aspergillus niger = experiment: Antifungal activity against Aspergillus niger NBRC 31012 assessed as inhibition zone incubated for 2 days by disk diffusion method; format: functional; conditions: time 2 day
Lipid bilayer [9] = experiment: Induction of pore formation in 10% Ergosterol containing DOPC liposomes assessed as calcein dye leakage by measuring calcein fluorescence at 27 uM by fluorescence microplate reader analysis
Lipid bilayer [10] = experiment: Binding affinity to DOPC liposomes at 50 uM and measured upto 600 sec by SPR method
Lipid bilayer [11] = experiment: Binding affinity to 10% Ergosterol containing DOPC liposomes at 50 uM and measured upto 600 sec by SPR method
Lipid bilayer [12] = experiment: Induction of pore formation in 10% Ergosterol containing DOPC liposomes assessed as calcein dye leakage by measuring calcein fluorescence at 10 uM by fluorescence microplate reader analysis

| Structure (SMILES) | Kd (Lipid bilayer [1]) [µM] | EC50 (Lipid bilayer [2]) [µM] | Activity (Lipid bilayer [3]) | Kd (Lipid bilayer [4]) [µM] | Kd (Lipid bilayer [5]) [µM] | Kd (Lipid bilayer [6]) [µM] | Kd (Lipid bilayer [7]) [µM] | Kd (Lipid bilayer [8]) [µM] | MIC (Aspergillus niger) [µg] | Activity (Lipid bilayer [9]) | Activity (Lipid bilayer [10]) | Activity (Lipid bilayer [11]) | Activity (Lipid bilayer [12]) | step-2 equilibrium ratio (Lipid bilayer [8]) |
| --- | --- | --- | --- | --- | --- | --- | --- | --- | --- | --- | --- | --- | --- | --- |
| C=C/C=C/CC/C=C/C=C/C=C/CC/C=C/[C@H](O)[C@H](O)[C@@H]1O[C@@H]([C@H](O)[C@H](O)C(=C)CC[C@@H](O)[C@@H]2C[C@H](O)[C@H](O)[C@@H]([C@H](O)[C@@H](O)/C=C(\C)CC[C@H](O)C[C@H](O)[C@H](O)[C@@H](C)C[C@H](O)[C@@H](O)CCCCC[C@@H](O)CCC[C@@H](O)/C=C/C[C@@H](O)/C=C/C[C@@H](O)CO)O2)C[C@@H](O)[C@H]1O | 6300 | 2.96 | Active | 6.9 | 980 | 51 | 0.00012 | 2.4 | 8 | – | – | – | – | – |
| C=C/C=C/CC/C=C/C=C/C=C/CC/C=C/[C@H](O)[C@H](O)[C@@H]1O[C@@H]([C@H](O)[C@H](O)C(=C)CC[C@@H](O)[C@@H]2C[C@H](O)[C@H](O)[C@@H]([C@H](O)[C@@H](O)CO)O2)C[C@@H](O)[C@H]1O | – | – | – | – | – | – | – | – | >300 | inactive | inactive | inactive | – | – |
| C=C/C=C/CC/C=C/C=C/C=C/CC/C=C/[C@H](O)[C@H](O)[C@@H]1O[C@@H]([C@H](O)[C@H](O)C(=C)CC[C@@H](O)[C@@H]2C[C@H](O)[C@H](O)[C@@H]([C@H](O)[C@@H](O)/C=C(\C)CC[C@H](O)C[C@H](O)[C@H](O)[C@@H](C)CCO)O2)C[C@@H](O)[C@H]1O | – | – | – | – | – | 25 | 1 | – | 20 | inactive | inactive | – | Active | 0.044 |
